One test relates to FADD−/− Jurkat cells. The experiment in a line: Necroptosis inhibition assay, TNF-α-induced necroptosis (CellTiter-Glo 2.0). The format is cell-based, human. The following applies: TNF-α 15 ng/mL; for Necroptosis inhibition assay (Rescue %) 1 μM: compound 1 μM; for Necroptosis inhibition assay (Rescue %) 10 μM: compound 10 μM. The essentials:
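FADD−/− Jurkat cells preincubated 30 min at room temperature with compound at 0.1, 1 and 10 μM final, then stimulated with TNF-α (15 ng/mL final) for 20–24 h at 37 °C, 5% CO2. Viability read as ATP luminescence; cytotoxicity and necroptosis inhibition rate calculated from luminescence values.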
In general terms: Cellular ATP, detected with luciferase, serves as a proxy for viable cell number.

The target of test [1] is T1, MLKL (Homo sapiens, UniProt Q8NB16).
T1 sequence (Q8NB16 1-471): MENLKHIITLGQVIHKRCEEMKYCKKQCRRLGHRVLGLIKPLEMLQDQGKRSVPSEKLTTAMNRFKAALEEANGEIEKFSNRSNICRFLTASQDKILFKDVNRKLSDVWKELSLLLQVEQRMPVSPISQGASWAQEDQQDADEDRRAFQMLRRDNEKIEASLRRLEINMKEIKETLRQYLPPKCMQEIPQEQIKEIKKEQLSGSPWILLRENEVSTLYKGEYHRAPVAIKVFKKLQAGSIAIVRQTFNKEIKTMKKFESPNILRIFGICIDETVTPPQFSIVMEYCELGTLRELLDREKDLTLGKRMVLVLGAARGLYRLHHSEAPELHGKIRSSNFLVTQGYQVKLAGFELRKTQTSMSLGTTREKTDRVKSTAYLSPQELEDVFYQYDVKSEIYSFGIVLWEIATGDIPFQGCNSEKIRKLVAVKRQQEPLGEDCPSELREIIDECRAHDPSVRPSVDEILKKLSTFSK
Put plainly: MLKL degradation assay in HepG2 cell line (western blot). Set-up: endogenous in cells; host or cells: HepG2 or HaCaT. The class given is cell-based. The following applies: cell line not given; for Degradation assay (Degradation %) 1 μM: compound 1 μM; for Degradation assay (Degradation %) 10 μM: compound 10 μM. In outline:
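HepG2 cells were treated 20-24 h at 37 °C with compound at 1 or 10 μM final. RIPA lysates were normalized by BCA, and 10-15 μg protein per lane was resolved by SDS-PAGE. MLKL was detected by western blot with chemiluminescence.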
For orientation: In western blotting, separated proteins are transferred to a membrane and probed.

Test [2] addresses T1, MLKL. Put plainly: Measurement of binding affinity with MLKL receptor (competitive binding assay, Kd). Set-up: made in house; host or cells: HEK 293 cell line (T7 phage in E. coli BL21-derived host is also described). In outline:
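Kd from an immobilized-ligand competition format: the DNA-tagged kinase from HEK 293 expression is eluted and quantified by qPCR. Compounds added from 111× DMSO stocks, final DMSO 0.9%.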

For orientation: Kd means the equilibrium constant for the complex coming apart. A lower Kd goes with tighter binding.

Take `COc1ccc(C(=O)N2CCC(C(=O)N3CCC(OCCN4CCC(CN5CCC(n6cc(-c7cnc(N)c(C(=O)O[C@@H](C(=O)Nc8ccc(F)cc8)c8ccccc8)n7)cn6)CC5)CC4)CC3)CC2)cc1N1CCC(=O)NC1=O` [TDH-512, (R)-2-((4-fluorophenyl)amino)-2-oxo-1-phenylethyl 3-amino-6-(1-(1-((1-(2-((1-(1-(3-(2,4-dioxotetrahydropyrimidin-1(2H)-yl)-4-methoxybenzoyl)piperidine-4-carbonyl)piperidin-4-yl)oxy)ethyl)piperidin-4-yl)methyl)piperidin-4-yl)-1H-pyrazol-4-yl)pyrazine-2-carboxylate]: in the test with FADD−/− Jurkat cells (FADD−/− Jurkat cells), the “Necroptosis inhibition assay (Rescue %) 1 μM” value was found to be 24.43% and the “Necroptosis inhibition assay (Rescue %) 10 μM” value is on record as 52.33%. For the same compound, at MLKL [1], the “Degradation assay (Degradation %) 1 μM” value was 51.41% and the “Degradation assay (Degradation %) 10 μM” value was determined as 80.48%. On MLKL [2], this compound gave a Kd of 0.74 nM.

Consider `Nc1ncc(-c2cnn([C@H]3CCN(CC4CCN(C(=O)CNc5cccc6c5C(=O)N(C5CCC(=O)NC5=O)C6=O)CC4)C3)c2)nc1C(=O)OC(C(=O)Nc1ccc(F)cc1)c1ccccc1` (stereo partly drawn) [TDH-281, 2-((4-fluorophenyl)amino)-2-oxo-1-phenylethyl 3-amino-6-(1-((3S)-1-((1-((2-(2,6-dioxopiperidin-3-yl)-1,3-dioxoisoindolin-4-yl)glycyl)piperidin-4-yl)methyl)pyrrolidin-3-yl)-1H-pyrazol-4-yl)pyrazine-2-carboxylate], for which, in the test on FADD−/− Jurkat cells, the “Necroptosis inhibition assay (Rescue %) 1 μM” value was found to be 29.65% and the “Necroptosis inhibition assay (Rescue %) 10 μM” value turned out to be 26.95%. In addition, on MLKL [1], the “Degradation assay (Degradation %) 1 μM” value turned out to be 45.01% and the “Degradation assay (Degradation %) 10 μM” value came out at 10.1%. Moreover, the Kd on MLKL [2] is 5.7 nM.

As to `Nc1ncc(-c2cnn([C@@H]3CCN(CC4CCN(C(=O)CNc5cccc6c5C(=O)N(C5CCC(=O)NC5=O)C6=O)CC4)C3)c2)nc1C(=O)OC(C(=O)Nc1ccc(F)cc1)c1ccccc1` (stereo partly drawn) [TDH-285, 2-((4-fluorophenyl)amino)-2-oxo-1-phenylethyl 3-amino-6-(1-((3R)-1-((1-((2-(2,6-dioxopiperidin-3-yl)-1,3-dioxoisoindolin-4-yl)glycyl)piperidin-4-yl)methyl)pyrrolidin-3-yl)-1H-pyrazol-4-yl)pyrazine-2-carboxylate], in the test on FADD−/− Jurkat cells, the “Necroptosis inhibition assay (Rescue %) 1 μM” value is reported as 36.72% and the “Necroptosis inhibition assay (Rescue %) 10 μM” value worked out at 40.43%. Further, on MLKL [1], the “Degradation assay (Degradation %) 1 μM” value is 56.55% and the “Degradation assay (Degradation %) 10 μM” value came to 50.66%. This compound registered a Kd on MLKL [2] of 13 nM.

Take `Nc1ncc(-c2cnn(C3CCN(CCCN4CCN(C(=O)COc5ccc6c(c5)C(=O)N(C5CCC(=O)NC5=O)C6=O)CC4)CC3)c2)nc1C(=O)O[C@@H](C(=O)Nc1ccc(F)cc1)c1ccccc1` (stereo partly drawn) [TDH-358, (R)-2-((4-fluorophenyl)amino)-2-oxo-1-phenylethyl 3-amino-6-(1-(1-(3-(4-(2-((2-(2,6-dioxopiperidin-3-yl)-1,3-dioxoisoindolin-5-yl)oxy)acetyl)piperazin-1-yl)propyl)piperidin-4-yl)-1H-pyrazol-4-yl)pyrazine-2-carboxylate]: the “Necroptosis inhibition assay (Rescue %) 1.1 μM” value with FADD−/− Jurkat cells (compound 1.1 µM) is listed as 100.10 (1.1 µM) %. Moreover, the “Necroptosis inhibition assay (Rescue %) 10 μM” value in the test on FADD−/− Jurkat cells was determined as 39.65%. At MLKL [1], the “Degradation assay (Degradation %) 1 μM” value came to 91.6% and the “Degradation assay (Degradation %) 10 μM” value was determined as 86.73%. The affinity on MLKL [2], expressed as Kd, was 0.5 nM.

Consider `Nc1ncc(-c2cnn(C3CCN(C4CC5(CCN(CC6CCN(C(=O)CNc7ccc8c(c7)C(=O)N(C7CCC(=O)NC7=O)C8=O)CC6)CC5)C4)CC3)c2)nc1C(=O)O[C@@H](C(=O)Nc1ccc(F)cc1)c1ccccc1` (stereo partly drawn) [TDH-443, (R)-2-((4-fluorophenyl)amino)-2-oxo-1-phenylethyl 3-amino-6-(1-(1-(7-((1-((2-(2,6-dioxopiperidin-3-yl)-1,3-dioxoisoindolin-5-yl)glycyl)piperidin-4-yl)methyl)-7-azaspiro[3.5]nonan-2-yl)piperidin-4-yl)-1H-pyrazol-4-yl)pyrazine-2-carboxylate], for which, in the test with FADD−/− Jurkat cells (FADD−/− Jurkat cells), the “Necroptosis inhibition assay (Rescue %) 1 μM” value is 59.05% and the “Necroptosis inhibition assay (Rescue %) 10 μM” value is −65.46%. Besides, at MLKL [1], the “Degradation assay (Degradation %) 1 μM” value worked out at 84.23% and the “Degradation assay (Degradation %) 10 μM” value stood at 86.93%. This compound showed a Kd at MLKL [2] of 0.52 nM.

Take `Nc1ncc(-c2cnn(C3CCN(CCOCCOCCNC(=O)CNc4cccc5c4C(=O)N(C4CCC(=O)NC4=O)C5=O)CC3)c2)nc1C(=O)N[C@@H](C(=O)Nc1ccc(F)cc1)c1ccccc1` (stereo partly drawn) [TDH-217, 3-amino-6-(1-(1-(2-(2-(2-(2-((2-(2,6-dioxopiperidin-3-yl)-1,3-dioxoisoindolin-4-yl)amino)acetamido)ethoxy)ethoxy)ethyl)piperidin-4-yl)-1H-pyrazol-4-yl)-N-((R)-2-((4-fluorophenyl)amino)-2-oxo-1-phenylethyl)pyrazine-2-carboxamide]: in the test with FADD−/− Jurkat cells, the “Necroptosis inhibition assay (Rescue %) 1 μM” value came out at 24.76% and the “Necroptosis inhibition assay (Rescue %) 10 μM” value is on record as 48.87%. Also, at MLKL [1], the “Degradation assay (Degradation %) 1 μM” value amounted to 11.62% and the “Degradation assay (Degradation %) 10 μM” value came to 31.11%. For the same compound, on MLKL [2], the Kd is 66 nM.

On to `Nc1ncc(-c2cnn(C3CCN(CCOC4CCN(C(=O)c5ccc(C(=O)NC6CCC(=O)NC6=O)cc5)CC4)CC3)c2)nc1C(=O)O[C@@H](C(=O)Nc1ccc(F)cc1)c1ccccc1` (stereo partly drawn) [TDH-538, (R)-2-((4-fluorophenyl)amino)-2-oxo-1-phenylethyl 3-amino-6-(1-(1-(2-((1-(4-((2,6-dioxopiperidin-3-yl)carbamoyl)benzoyl)piperidin-4-yl)oxy)ethyl)piperidin-4-yl)-1H-pyrazol-4-yl)pyrazine-2-carboxylate], for which, in the test with FADD−/− Jurkat cells (FADD−/− Jurkat cells), the “Necroptosis inhibition assay (Rescue %) 1 μM” value is on record as 24.02% and the “Necroptosis inhibition assay (Rescue %) 10 μM” value is recorded as 21.52%. Further, on MLKL [1], the “Degradation assay (Degradation %) 1 μM” value is on record as 66.34% and the “Degradation assay (Degradation %) 10 μM” value turned out to be 54.70%. The same compound showed a Kd on MLKL [2] of 0.31 nM.

For the compound `Nc1ncc(-c2cnn(C3CCN(C[C@H]4CC[C@H](CNC(=O)CNc5cccc6c5C(=O)N(C5CCC(=O)NC5=O)C6=O)CC4)CC3)c2)nc1C(=O)O[C@@H](C(=O)Nc1ccc(F)cc1)c1ccccc1` (stereo partly drawn) [TDH-347, (R)-2-((4-fluorophenyl)amino)-2-oxo-1-phenylethyl 3-amino-6-(1-(1-(((1r,4r)-4-((2-((2-(2,6-dioxopiperidin-3-yl)-1,3-dioxoisoindolin-4-yl)amino)acetamido)methyl)cyclohexyl)methyl)piperidin-4-yl)-1H-pyrazol-4-yl)pyrazine-2-carboxylate], in the test with FADD−/− Jurkat cells, the “Necroptosis inhibition assay (Rescue %) 1 μM” value was 23.88% and the “Necroptosis inhibition assay (Rescue %) 10 μM” value came out at 12.87%. On MLKL [1], the “Degradation assay (Degradation %) 1 μM” value worked out at 77.96% and the “Degradation assay (Degradation %) 10 μM” value was determined as 85.06%. Moreover, the Kd at MLKL [2] came out at 1.9 nM.

For `Nc1ncc(-c2cnn(C3CCN(C(=O)CCC4CCN(C(=O)C5CN(c6cccc7c6C(=O)N(C6CCC(=O)NC6=O)C7=O)C5)CC4)CC3)c2)nc1C(=O)O[C@@H](C(=O)Nc1ccc(F)cc1)c1ccccc1` (stereo partly drawn) [TDH-427, (R)-2-((4-fluorophenyl)amino)-2-oxo-1-phenylethyl 3-amino-6-(1-(1-(3-(1-(1-(2-(2,6-dioxopiperidin-3-yl)-1,3-dioxoisoindolin-4-yl)azetidine-3-carbonyl)piperidin-4-yl)propanoyl)piperidin-4-yl)-1H-pyrazol-4-yl)pyrazine-2-carboxylate], in the test with FADD−/− Jurkat cells (FADD−/− Jurkat cells), the “Necroptosis inhibition assay (Rescue %) 1 μM” value is recorded as 5.57% and the “Necroptosis inhibition assay (Rescue %) 10 μM” value was 9.73%. Besides, on MLKL [1], the “Degradation assay (Degradation %) 1 μM” value is reported as 75.94% and the “Degradation assay (Degradation %) 10 μM” value was determined as 59.59%. On MLKL [2], the Kd came out at 2.4 nM.

With `Nc1ncc(-c2cnn(C3CCN(CCCN4CCN(C(=O)C5CCN(C6=CC(=O)N(C7CCC(=O)NC7=O)C6=O)CC5)CC4)CC3)c2)nc1C(=O)O[C@@H](C(=O)Nc1ccc(F)cc1)c1ccccc1` (stereo partly drawn) [TDH-526, (R)-2-((4-fluorophenyl)amino)-2-oxo-1-phenylethyl 3-amino-6-(1-(1-(3-(4-(1-(1-(2,6-dioxopiperidin-3-yl)-2,5-dioxo-2,5-dihydro-1H-pyrrol-3-yl)piperidine-4-carbonyl)piperazin-1-yl)propyl)piperidin-4-yl)-1H-pyrazol-4-yl)pyrazine-2-carboxylate], in the test on FADD−/− Jurkat cells (FADD−/− Jurkat cells), the “Necroptosis inhibition assay (Rescue %) 1 μM” value amounted to 57.37% and the “Necroptosis inhibition assay (Rescue %) 10 μM” value was 22.77%. In addition, at MLKL [1], the “Degradation assay (Degradation %) 1 μM” value is reported as 67.25% and the “Degradation assay (Degradation %) 10 μM” value amounted to 81.42%. For the same compound, the Kd on MLKL [2] amounted to 1.2 nM.

(Values after US20240252488A1 (KOREA RESEARCH INSTITUTE OF CHEMICAL TECHNOLOGY, priority 2020, published 2024).)
